# Experimental data: patent US20110053933A1, “HYDROXYQUINOXALINECARBOXAMIDE DERIVATIVE” (DAIICHI SANKYO COMPANY, LIMITED, priority 2008, published 2011)
# Test system: γ-glutamyl carboxylation reaction (human Gas6 in Gas6-HEK293 cells)
# Assay: Inhibitory action on γ-glutamyl carboxylation reaction (secreted γ-glutamyl carboxylated Gas6 by ELISA)
# Format: cell-based
# Settings: vitamin K2 100 nM, exposure 18 to 20 hours, ELISA absorbance at 620 nm, read-out: IC50 (50% inhibitory concentration for the γ-glutamyl carboxylation reaction)
# Experimental: Measurement of Inhibitory Action on γ-Glutamyl Carboxylation Reaction
# Cells were used that expressed Gas6 excreted outside the cells when subjected to γ-glutamyl carboxylation, and inhibitory action on γ-glutamyl carboxylation reaction was assessed by measuring the secreted amount of extracellular Gas6 by ELISA method.
# (A) Preparation for Assay Plate Containing Solid-Phase Anti-Human Gas6 Antibody
# Goat anti-human Gas6 antibody (R&D Systems, Inc.) was diluted to 1 μg/ml with Dulbecco's phosphate-buffered saline, and 40 μl aliquots thereof were dispensed into each well of a 384-well microplate. After immobilizing the antibody to the solid phase by allowing it to stand at 4° C. overnight or at room temperature for 2 hours or more, each well was washed three times with wash buffer (10 mM Tris-HCl pH 7.4, 150 mM sodium chloride, 0.05% Tween20). After removing the supernatant, 80 μl aliquots of a 1% aqueous solution of Block Ace (Dainippon Sumitomo Pharma) were dispensed into each well and allowed to react at room temperature for 1 hour or more.
# (B) Exposure of Test Compounds to Cells Stably Expressing Human Gas6
# Cells that stably express human Gas6 (Gas6-HEK293), which were prepared by inserting human Gas6 gene (inserted between SalI and NotI within multiple cloning sites of pCIneo expression vector) into HEK293 cells, were grown and sub-cultured using Dulbecco's modified Eagle's medium (DMEM) containing 10% fetal calf serum (FCS). On the day before ELISA measurement, the Gas6-HEK293 cells were detached with trypsin-EDTA, dispersed in DMEM containing 10% FCS, and disseminated into each well of a 384-well, collagen type I-coated plate (Becton-Dickinson) in 30 μl aliquots containing 1.0×10^4 cells each, followed by culturing for 3 to 4 hours at 5% CO2 and 37° C. 30 μl aliquots of DMEM containing test compound solutions, prepared at various concentrations by dissolving in DMSO, and vitamin K2 at 0.1% and 100 nM, respectively (indicating final concentrations in both cases) were added to each well followed by additionally culturing for 18 to 20 hours.
# (C) Quantification of γ-Glutamyl Carboxylated Gas6 by ELISA and Calculation of 50% Inhibitory Concentrations of γ-Glutamyl Carboxylation Reaction
# After removing the 1% Block Ace aqueous solution from the preliminarily prepared assay plates containing solid phase anti-human Gas6 antibody, the culture supernatant of Gas6-HEK293 cells exposed to the test compounds was collected and 40 μl aliquots were dispensed into each well followed by allowing to react at room temperature for 2 hours (Step 1). The culture supernatant was removed and each well was washed three times with wash buffer. Thereafter, the same washing procedure was carried out between Steps 2 and 3 and Steps 3 and 4. Subsequently, 40 μl aliquots of mouse anti-human […] antibody (American Diagnostica inc.), adjusted to 0.5 μg/ml with immunoreaction buffer (100 mM Tris-HCl pH 7.4, 0.05% Tween20, 0.1% Block Ace), were dispensed into each well and allowed to react at room temperature for 1 hour (Step 2). Next, 40 μl aliquots of alkaline phosphatase-conjugated anti-mouse IgG antibody adjusted to 1.0 μg/ml with immunoreaction buffer were dispensed into each well and allowed to react at room temperature for 1 hour (Step 3). 40 μl aliquots of BluePhos Microwell (KPL) were dispensed into each well, and after incubating at room temperature for 10 minutes (Step 4), 20 μl aliquots of 5% EDTA were added to each well to stop the color development reaction, followed by measurement of absorbance at 620 nm (Step 5). […]
smiles,measurement,value
"CC(C)[C@H](NC(=O)c1nc2ccccc2nc1O)C(=O)N1CCC(Oc2ccc(OC(F)(F)F)cc2)CC1 [Example 18, 3-Hydroxy-N-[(1S)-2-methyl-1-({4-[4-(trifluoromethoxy)phenoxy]piperidin-1-yl}carbonyl)propyl]quinoxaline-2-carboxamide]",IC50,2.9 nM
"CC(C)[C@H](NC(=O)c1nc2ccccc2nc1O)C(=O)N1CCC(Oc2ccc(C#N)cc2)CC1 [Example 19, N-[(1S)-1-{[4-(4-Cyanophenoxy)piperidin-1-yl]carbonyl}-2-methylpropyl]-3-hydroxyquinoxaline-2-carboxamide]",IC50,4.7 nM
"CC(C)[C@H](NC(=O)c1nc2ccccc2nc1O)C(=O)N1CCC(Oc2ccc(F)cc2Br)CC1 [Example 21, N-[(1S)-1-{[4-(2-Bromo-4-fluorophenoxy)piperidin-1-yl]carbonyl}-2-methylpropyl]-3-hydroxyquinoxaline-2-carboxamide]",IC50,0.89 nM
"CC(C)[C@H](NC(=O)c1nc2ccccc2nc1O)C(=O)N1CCC(Oc2ccc(F)cc2F)CC1 [Example 23, N-[(1S)-1-{[4-(2,4-Difluorophenoxy)piperidin-1-yl]carbonyl}-2-methylpropyl]-3-hydroxyquinoxaline-2-carboxamide]",IC50,< 0.6 nM
"CC(C)[C@H](NC(=O)c1nc2ccccc2nc1O)C(=O)N1CCC(Oc2ccc(Cl)cn2)CC1 [Example 29, N-[(1S)-1-({4-[(5-Chloropyridin-2-yl)oxy]piperidin-1-yl}carbonyl)-2-methylpropyl]-3-hydroxyquinoxaline-2-carboxamide]",IC50,7.2 nM
"CC(C)[C@H](NC(=O)c1nc2ccccc2nc1O)C(=O)N1CCC(N(C)c2ccc(F)cc2)CC1 [Example 30, N-[(1S)-1-({4-[(4-Fluorophenyl)(methyl)amino]piperidin-1-yl}carbonyl)-2-methylpropyl]-3-hydroxyquinoxaline-2-carboxamide]",IC50,1.7 nM
"CC(C)[C@H](NC(=O)c1nc2ccccc2nc1O)C(=O)N1CCC(Nc2ccc(F)cn2)CC1 [Example 34, N-[(1S)-1-({4-[(5-Fluoropyridin-2-yl)amino]piperidin-1-yl}carbonyl)-2-methylpropyl]-3-hydroxyquinoxaline-2-carboxamide]",IC50,12 nM
"CC(C)[C@H](NC(=O)c1nc2ccccc2nc1O)C(=O)N1CCC(N(C)c2ccc(F)cn2)CC1 [Example 35, N-[(1S)-1-({4-[(5-Fluoropyridin-2-yl)(methyl)amino]piperidin-1-yl}carbonyl)-2-methylpropyl]-3-hydroxyquinoxaline-2-carboxamide]",IC50,< 0.6 nM
"CC(C)[C@H](NC(=O)c1nc2ccccc2nc1O)C(=O)N1CCC(Oc2ccc(C(F)(F)F)cn2)CC1 [Example 36, 3-Hydroxy-N-{(1S)-2-methyl-1-[(4-{[5-(trifluoromethyl)pyridin-2-yl]oxy}piperidin-1-yl)carbonyl]propyl}quinoxaline-2-carboxamide]",IC50,1.8 nM
"CC(C)[C@H](NC(=O)c1nc2ccccc2nc1O)C(=O)N1CCC(Oc2ccc(F)cn2)CC1 [Example 37, N-[(1S)-1-({4-[(5-Fluoropyridin-2-yl)oxy]piperidin-1-yl}carbonyl)-2-methylpropyl]-3-hydroxyquinoxaline-2-carboxamide]",IC50,5.4 nM
"CC(C)[C@H](NC(=O)c1nc2ccccc2nc1O)C(=O)N1CCC(Sc2ccc(F)cc2)CC1 [Example 45, N-[(1S)-1-({4-[(4-Fluorophenyl)thio]piperidin-1-yl}carbonyl)-2-methylpropyl]-3-hydroxyquinoxaline-2-carboxamide]",IC50,1.3 nM
"CC(C)[C@H](NC(=O)c1nc2ccccc2nc1O)C(=O)N1CCC(Oc2ncc(F)cc2F)CC1 [Example 49, N-[(1S)-1-({4-[(3,5-Difluoropyridin-2-yl)oxy]piperidin-1-yl]carbonyl)-2-methylpropyl}-3-hydroxyquinoxaline-2-carboxamide]",IC50,4.3 nM
"CC(C)[C@H](NC(=O)c1nc2ccccc2nc1O)C(=O)N1CCC(C(=O)c2ccc(F)cc2)CC1 [Example 61, N-[(1S)-1-{[4-(4-Fluorobenzoyl)piperidin-1-yl]carbonyl}-2-methylpropyl]-3-hydroxyquinoxaline-2-carboxamide]",IC50,5.1 nM
"CC(C)[C@H](NC(=O)c1nc2ccccc2nc1O)C(=O)N1CCC(Oc2ccc(C(F)(F)F)cc2)CC1 [Example 62, 3-Hydroxy-N-[(1S)-2-methyl-1-({4-[4-(trifluoromethyl)phenoxy]piperidin-1-yl}carbonyl)propyl]quinoxaline-2-carboxamide]",IC50,3.6 nM
"CC(C)[C@H](NC(=O)c1nc2ccccc2nc1O)C(=O)N1CCC(Oc2ncc(Br)cn2)CC1 [Example 65, N-[(1S)-1-({4-[(5-Bromopyrimidin-2-yl)oxy]piperidin-1-yl}carbonyl)-2-methylpropyl]-3-hydroxyquinoxaline-2-carboxamide]",IC50,20 nM
"CC(C)[C@H](NC(=O)c1nc2ccccc2nc1O)C(=O)N1CCC(C(=O)c2ccc(F)cc2O)CC1 [Example 67, N-[(1S)-1-{[4-(4-Fluoro-2-hydroxybenzoyl)piperidin-1-yl]carbonyl}-2-methylpropyl]-3-hydroxyquinoxaline-2-carboxamide]",IC50,0.75 nM
"CC(C)(O)[C@H](NC(=O)c1nc2ccccc2nc1O)C(=O)N1CCC(Oc2ccc(F)cc2)CC1 [Example 69, N-[(1S)-1-{[4-(4-Fluorophenoxy)piperidin-1-yl]carbonyl}-2-hydroxy-2-methylpropyl]-3-hydroxyquinoxaline-2-carboxamide]",IC50,3.4 nM
"CC(C)[C@H](NC(=O)c1nc2ccc(F)cc2nc1O)C(=O)N1CCC(Oc2ccc(F)cc2)CC1 [Example 74, N-[(1S)-1-{[4-(4-Fluorophenoxy)piperidin-1-yl]carbonyl}-2-methylpropyl]-6-fluoro-3-hydroxyquinoxaline-2-carboxamide]",IC50,5.5 nM
"CC(C)[C@H](NC(=O)c1nc2ccccc2nc1O)C(=O)N1CCC(Oc2ncc(-c3ccccc3)cn2)CC1 [Example 80, 3-Hydroxy-N-[(1S)-2-methyl-1-({4-[(5-phenylpyrimidin-2-yl)oxy]piperidin-1-yl}carbonyl)propyl]quinoxaline-2-carboxamide]",IC50,7.1 nM
"CC(C)[C@H](NC(=O)c1nc2ccccc2nc1O)C(=O)N1CCC(Oc2cnc(-c3ccccc3)nc2)CC1 [Example 81, 3-Hydroxy-N-[(1S)-2-methyl-1-({4-[(2-phenylpyrimidin-5-yl)oxy]piperidin-1-yl}carbonyl)propyl]quinoxaline-2-carboxamide]",IC50,4.6 nM
"CC(C)[C@H](NC(=O)c1nc2ccccc2nc1O)C(=O)N1CCC(Oc2ncc(Br)cn2)C(C)(C)C1 (stereo partly drawn) [Example 82, N-[(1S)-1-({4-[(5-Bromopyrimidin-2-yl)oxy]-3,3-dimethylpiperidin-1-yl}carbonyl)-2-methylpropyl]-3-hydroxyquinoxaline-2-carboxamide]",IC50,4.6 nM
"CC(C)[C@H](NC(=O)c1nc2ccccc2nc1O)C(=O)N1CCC(Oc2ccc(C(F)(F)F)nc2)CC1 [Example 84, 3-Hydroxy-N-{(1S)-2-methyl-1-[(4-{[6-(trifluoromethyl)pyridin-3-yl]oxy}piperidin-1-yl)carbonyl]propyl}quinoxaline-2-carboxamide]",IC50,5.5 nM
"COc1ccc(OC2CCN(C(=O)[C@@H](NC(=O)c3nc4ccccc4nc3O)C(C)C)CC2)cn1 [Example 86, 3-Hydroxy-N-[(1S)-1-({4-[(6-methoxypyridin-3-yl)oxy]piperidin-1-yl}carbonyl)-2-methylpropyl]quinoxaline-2-carboxamide]",IC50,0.7 nM
"Cc1nc2ccc(OC3CCN(C(=O)[C@@H](NC(=O)c4nc5ccccc5nc4O)C(C)C)CC3)cc2s1 [Example 91, 3-Hydroxy-N-[(1S)-2-methyl-1-({4-[(2-methyl-1,3-benzothiazol-6-yl)oxy]piperidin-1-yl}carbonyl)propyl]quinoxaline-2-carboxamide]",IC50,3.8 nM
